Results: patent US8404677B2, “Kinase inhibitors” (Genosco, priority 2009, dated 2013)
Blank lines part the entries; values can stand above or below the compound they belong to.

Legend:
[1] = tested on: TNF-α release in THP-1 cells, LPS stimulation; test: SYK independent TNF-α release assay (LPS stimulation); assay type: cell-based, human; conditions: Homo sapiens; LPS stimulation, At 1 μM, THP-1; read-out: Inhibition of TNF-α Release (percentage inhibition)
Method: For SYK independent TNF-α release assay (i.e., via lipopolysaccharide (LPS)-stimulation), THP-1 cells derived from human monocytic cells were obtained from the American Type Culture Collection (ATCC, Manassas, Va.). This cell line was maintained with an RPMI medium (GIBCO™) containing 10 fetal bovine serum (FBS, GIBCO™) and 0.05 mM 2-mercaptoethanol. The THP-1 cells were seeded at 1×10^5 cells/100 μL/well into 96-well culture plates, and treated with lipopolysaccharide (1 μg/ml), and serially diluted compound was then added. After an 18-hour incubation period at 37° C., supernatants were collected for the determination of the TNF-α level by ELISA, and the remaining cells were subjected to an MTT assay to determine the cytotoxic effects of compound.

[2] = target: T1, truncated human RET (Homo sapiens, UniProt P07949); test: Inhibition of enzymatic kinase activity (LANCE Ulight); assay type: biochemical
T1 construct: truncated human FAK, RET, FLT3, JAK2, and LRRK2 (CARNA BIOSCIENCES™); purchased Carna Biosciences
T1 sequence (P07949 658-1114 limits assumed): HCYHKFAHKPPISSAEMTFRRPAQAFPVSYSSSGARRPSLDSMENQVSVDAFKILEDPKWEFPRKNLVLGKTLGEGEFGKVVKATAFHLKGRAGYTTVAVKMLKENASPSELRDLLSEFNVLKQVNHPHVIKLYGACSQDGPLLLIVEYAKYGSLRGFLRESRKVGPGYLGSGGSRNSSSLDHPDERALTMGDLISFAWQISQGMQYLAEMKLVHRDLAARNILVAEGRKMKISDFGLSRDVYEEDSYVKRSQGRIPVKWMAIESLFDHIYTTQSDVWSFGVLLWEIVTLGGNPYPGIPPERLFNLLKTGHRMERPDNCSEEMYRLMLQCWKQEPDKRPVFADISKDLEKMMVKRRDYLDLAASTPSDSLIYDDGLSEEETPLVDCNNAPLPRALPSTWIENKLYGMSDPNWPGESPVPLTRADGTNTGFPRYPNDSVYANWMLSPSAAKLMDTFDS
Method: (§1) Inhibition of Enzymatic SYK, ZAP70, PYK2, FAK, PIM1, RET, FLT3, JAK2 and LRRK2 Kinase Activity
(§2) Compounds of the invention were initially diluted to 10 mM in 100% DMSO (CALBIOCHEM™) for storage and made into kinase buffer solution to create a compound concentration ranging from 1 uM and 10 uM. Serial dilutions of compounds of the invention were dispensed into a 96-well plate (GREINER BIOSCIENCES™) at 6 μL each. Purified full-length human SYK, ZAP70, PIM1, PYK2 and truncated human FAK, RET, FLT3, JAK2, and LRRK2 (CARNA BIOSCIENCES™) were diluted in kinase buffer and added to the compound solutions and pre-incubated for 30 minutes at room temperature (1 hour for PYK2). […] The reaction mixture was incubated for 1 hour (2 hours for PYK2). Following the incubation, the stop solution made with EDTA, water, and Lance detection buffer ([…]™) was added (12 μL each) to stop phosphorylation.

[3] = target: T2, truncated human FLT3 (Homo sapiens, UniProt P36888); test: as above; assay type: biochemical
T2 construct: truncated human FAK, RET, FLT3, JAK2, and LRRK2 (CARNA BIOSCIENCES™); purchased Carna Biosciences
T2 sequence (P36888 564-993 limits assumed): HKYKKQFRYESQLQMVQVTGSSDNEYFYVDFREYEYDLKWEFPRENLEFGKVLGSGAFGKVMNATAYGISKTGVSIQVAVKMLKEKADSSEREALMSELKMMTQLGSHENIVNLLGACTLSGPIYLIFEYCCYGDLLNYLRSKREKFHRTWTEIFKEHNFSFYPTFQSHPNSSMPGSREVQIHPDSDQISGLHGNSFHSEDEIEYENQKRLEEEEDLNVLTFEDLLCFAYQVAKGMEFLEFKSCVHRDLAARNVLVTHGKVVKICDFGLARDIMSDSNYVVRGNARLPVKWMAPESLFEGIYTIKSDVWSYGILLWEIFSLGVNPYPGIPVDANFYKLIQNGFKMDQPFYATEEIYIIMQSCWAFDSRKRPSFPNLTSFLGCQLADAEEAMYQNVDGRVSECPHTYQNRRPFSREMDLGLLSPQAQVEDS
Method: as §1, §2

[4] = target: T3, truncated human JAK2 (Homo sapiens, UniProt O60674); test: as above; assay type: biochemical
T3 construct: truncated human FAK, RET, FLT3, JAK2, and LRRK2 (CARNA BIOSCIENCES™); purchased Carna Biosciences
Method: as §1, §2

[5] = tested on: HEL cells expressing human JAK2 V617F; test: Cell viability assay: JAK2 inhibition; assay type: cell-based; conditions: for IC50: Homo sapiens, 72-hour incubation
Method: Compounds of the invention were tested for cell viability effect on HEL cells. For cell viability assay, HEL cells expressing human JAK2 V617F were obtained from the American Type Culture Collection (ATCC, Manassas, Va.). This cell line was maintained with an Roswell Park Memorial Institute (RPMI) medium (HyClone™) containing 10 bovine calf serum (BCS; Hyclone™) supplemented iron. The HEL cells were seeded at 2×10^4 cells in 96 well culture plates, and serially diluted compound was then added. After a 72-hour incubation period at 37° C., Cell viability was measured using the ATPLite 1 step assay (Perkin-Elmer™) that is based on the quantification of ATP from viable cells. CellTiter Aqueous assay (Promega™) was also performed in parallel as an orthogonal assay. IC50 values were calculated using nonlinear regression and defined as the concentration needed for a 50 reduction in luminescence or absorbance treated versus untreated control cells (Prism™ Software).

[6] = tested on: SN4741 cells overexpressing LRRK2 wild-type; test: Neuroprotection from LRRK2-mediated dopaminergic cell death (H2O2, crystal violet); assay type: cell-based, murine; conditions: for Percent Cell Death: LRRK2 WT, 100 μM hydrogen peroxide
Method: (§3) SN4741, a murine dopaminergic cell line were cultured in DMEM containing 10 FBS at 37° C., respectively. SN4741 cells (1.5×10^4/well) were seeded in 48 well plates 1 day before transient transfection with 1 μg of the pcDNA3.1 plasmids of either vector, LRRK wildtype cDNA, LRRK G2019S cDNA, by standard CaCl2 precipitation. Two days after transfection, cells were treated with 100 μM hydrogen peroxide for 1 day and cell viability was measured by crystal violet assay. For compound treatment, the test compounds were added at 0.05 μM, 0.5 μM and 5 μM and the cells were incubated for 1 hour prior to the addition of hydrogen peroxide.
(§4) SN4741 cells were transfected with plasmids containing the LRRK2 wild-type or G2019S and incubated them for 2 days followed by addition of 100 μM of hydrogen peroxide for 24 h to sensitize them to oxidative stress. Cell survival was assessed using the crystal violet.

[7] = tested on: SN4741 cells transfected with vector; test: as above; assay type: cell-based, murine; conditions: 100 μM hydrogen peroxide
Method: as §3, §4

[8] = tested on: SN4741 cells overexpressing LRRK2 G2019S; test: as above; assay type: cell-based, murine; conditions: for Percent Cell Death: 100 μM hydrogen peroxide
Method: as §3, §4

[9] = target: truncated human LRRK2 (Homo sapiens, UniProt Q5S007); test: Inhibition of enzymatic kinase activity (LANCE Ulight); assay type: biochemical
Method: as §1, §2

T3 sequence (O60674 826-1132 limits assumed): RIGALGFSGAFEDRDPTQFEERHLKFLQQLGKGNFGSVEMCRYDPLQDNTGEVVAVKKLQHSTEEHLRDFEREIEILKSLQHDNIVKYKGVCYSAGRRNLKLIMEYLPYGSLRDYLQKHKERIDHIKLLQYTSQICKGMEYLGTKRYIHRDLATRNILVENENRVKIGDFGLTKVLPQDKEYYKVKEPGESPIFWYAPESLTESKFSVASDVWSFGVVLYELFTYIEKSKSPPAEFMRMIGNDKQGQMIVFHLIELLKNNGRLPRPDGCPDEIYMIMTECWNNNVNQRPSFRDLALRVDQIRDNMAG
truncated human LRRK2, sequence (Q5S007 1879-2138 limits assumed): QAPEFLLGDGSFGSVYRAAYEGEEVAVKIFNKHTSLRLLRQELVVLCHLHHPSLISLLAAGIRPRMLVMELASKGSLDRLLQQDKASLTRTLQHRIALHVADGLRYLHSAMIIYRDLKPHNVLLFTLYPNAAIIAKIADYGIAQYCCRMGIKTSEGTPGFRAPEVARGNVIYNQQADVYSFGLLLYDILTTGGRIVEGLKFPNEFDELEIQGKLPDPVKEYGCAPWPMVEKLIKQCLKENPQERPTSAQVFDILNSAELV

Structure (SMILES): C[C@@H]1C[C@H]2[C@@H]3CCC4=CC(=O)C=C[C@]4(C)[C@@]3(F)[C@@H](O)C[C@]2(C)[C@@]1(O)C(=O)CO [Dexamethasone, reference compound]
inhibition at 1 µM [1]: 68.4%

IC50 [2]: 4.1 nM | IC50 [3]: 9.1 nM | IC50 [4]: 1.6 nM
Structure (SMILES): O=c1[nH]ccc2nc(N3CCC(CO)CC3)nc(Nc3ccc(N4CCOCC4)cc3)c12 [Compound 139, 2-(4-(hydroxymethyl)piperidin-1-yl)-4-(4-morpholinophenylamino)pyrido[4,3-d]pyrimidin-5(6H)-one]
inhibition level compared with Sorafenib [5]: inhibition level greater than those exhibited by Sorafenib | times higher inhibition in IC50 than Sorafenib [5]: about 10 time | IC50 [5]: 152 nM

IC50 [2]: 5.8 nM | IC50 [3]: 12.4 nM | IC50 [4]: 1.6 nM
Structure (SMILES): O=c1[nH]ccc2nc(N3CCC(CO)CC3)nc(Nc3ccc(N4CCS(=O)(=O)CC4)cc3)c12 [Compound 137]
inhibition level compared with Sorafenib [5]: inhibition level greater than those exhibited by Sorafenib | IC50 [5]: 89 nM

IC50 [9]: 325 nM
Structure (SMILES): O=c1[nH]ccc2nc(N3CCC(O)CC3)nc(Nc3cc(C(F)(F)F)cc(C(F)(F)F)c3)c12 [Compound 102, 4-(3,5-bis(trifluoromethyl)phenylamino)-2-(4-hydroxypiperidin-1-yl)pyrido[4,3-d]pyrimidin-5(6H)-one]
Percent Cell Death ([6]; 0.05 uM): 49.9% | Percent Cell Death ([6]; 0.5 uM): 55.3% | Percent Cell Death ([6]; 5 uM): 46.5% | protective effects against LRRK2-associated cell death ([6]; LRRK2 wild-type, at 0.05 uM and higher, vs vector, DMSO or H2O2 controls): increased protective effects | Percent Cell Death ([7]; 0.05 uM): 50.0% | Percent Cell Death ([7]; 0.5 uM): 54.4% | Percent Cell Death ([7]; 5 uM): 50.5% | Percent Cell Death ([8]; 0.05 uM): 54.9% | Percent Cell Death ([8]; 0.5 uM): 56.0% | Percent Cell Death ([8]; 5 uM): 44.0% | protective effects against LRRK2-associated cell death ([8]; at 0.05 uM and higher, vs vector, DMSO or H2O2 controls): increased protective effects
